Measurements reported in patent US8846327B2, “Method of quantifying autoinducer-2” (priority 2007, dated 2014).

Tests used:
AI-2 = settings: Niu C. et al., Lett. Appl. Microbiol. 2006; cited from earlier work
[1] = tested on: Vibrio harveyi BB170 strain; experiment: AI-2 reporter bioassay: photogenesis intensity of Vibrio harveyi BB170 reporter bacterium; format: cell-based
Protocol: An HMF authentic preparation (SIGMA) and a DPD authentic preparation (examination of synthesis was requested to OMM Scientific, and a product synthesized by the company was purchased) were added at a final concentration of 0.001 to 1000 μM to a Vibrio harveyi BB170 strain (purchased from ATCC, cultured under aerobic conditions at 30° C. in a marine medium (manufactured by Difco)) used as an autoinducer-2 (AI-2) reporter bacterium. The photogenesis intensity as the index of the AI-2 activity was measured in the same way as in Keersmaecker S. C. J. et al., J. Biol. Chem., 280(20), pp. 19563-19568, 2005. Namely, the Vibrio harveyi BB170 strain was diluted to 5000-fold as a final concentration with an AB medium (for example, see Bassler et al., Mol. Microbiol., 9, pp. 773-786, 1993), and the reporter bacterium liquid and the authentic preparations were mixed at a volume ratio of 9:1, followed by culturing with aerobic shaking at 30° C. Four hours later, the photogenesis intensity was measured using a chemiluminescence analyzer (Berthold, Mitharas LB940 (product name), detecting chemiluminescence). FIG. 1 illustrates a correlation between the concentrations of the HMF authentic preparation and DPD authentic preparation, and the photogenesis intensity. The HMF authentic preparation and DPD authentic preparation were prepared in glass containers. […]

[2] = tested on: Vibrio harveyi BB170 strain; settings: Keersmaecker et al.; reporter strain of Vibrio harveyi; activity detected at considerably higher concentration than DPD; cited from earlier work

For `O=CC=Cc1ccccc1` [Cinnamaldehyde, 3-phenyl-2-propenal], the AI-2-inhibiting activity (AI-2) is listed as “having an AI-2-inhibiting activity”.

In the case of `CC1=C(O)C(=O)CO1` [HMF, 4-hydroxy-5-methyl-3(2H)-furanone], the “HMF concentration detectable in the bioassay” value ([1]; calibration curve prepared using glass containers) is listed as ≤ 0.1 µM, the “HMF-induced photogenesis intensity of the reporter bacterium compared with autoinducer-2” value ([1]; reporter bacterium light emission) is listed as “lower than the photogenesis intensity induced by autoinducer-2” and the autoinducer-2 activity [2] is listed as “has an autoinducer-2 activity”.
